Assays:
thrombin generation = assay: Thrombin generation inhibition assay; assay type: biochemical, human
Protocol: After 10 min, the reaction was stopped by addition of EGTA. A chromogenic peptide substrate (Spectrozyme TH, American Diagnostica) specific for thrombin was added to measure the activity of thrombin generated during the tissue factor treatment period. After allowing the substrate cleavage reaction to proceed for 2 min, the samples were quenched with glacial acetic acid. The plasma samples were analyzed in triplicate in a 96-well plate format. […] The control samples were used to establish plate acceptance criteria. Absorbance of each sample well was measured at 405 nm.
Thrombin generation (% Inhibition) was calculated from absorbance at 405 nm (A405) by the following equation: %Inhibition=(1−A405/Baseline)×100.
Since thrombin generation inhibition values were reported as a percentage there is no lower limit of quantitation in this assay.

factor Xa = target: T1, factor Xa (Bos taurus, UniProt P00743); assay: Anti-factor Xa unit assay; assay type: biochemical, human; settings: total knee replacement patients, 15 mg or 40 mg oral twice a day
T1 construct: purchased Diapharma COATEST LMW Heparin
Protocol: The anti-factor Xa (anti-fXa) assay was adapted from a commercial kit (Diapharma COATEST LMW Heparin) and modified to a 96-well format. A low molecular weight heparin, dalteparin, included in the kit was used to construct a standard curve according to the manufacture's instruction using pooled platelets poor plasma. All samples and standards were assayed in duplicate. The limit of quantitation was 0.05 U/mL and results below 0.05 U/mL were reported as below the limit of quantitation. The upper limit of measurement for the plate assay was 1.0 U/mL and samples with anti-factor Xa units higher than 1.0 U/mL were re-assayed after dilution. The coefficient of variation (CV) for both standards and clinical samples were 10%.

[1] = tested on: ferric chloride induced thrombosis in rat carotid artery; assay: Ferric chloride induced thrombosis in rat carotid artery; assay type: in vivo; settings: for % Did not occlude (inhibition of rat thrombosis) / Number of animals without occlusion: intravenous infusion; for Number of animals without occlusion: 10 animals; for time to occlusion: animals that had vessel occlusion
cytokine release = assay: Ex vivo assay of human cytokine release in collagen activated whole blood; assay type: cell-based; settings: Compound A single treatment (50 to 500 nM), blood of healthy untreated donors, collagen 4 μg/mL
Protocol: An ex vivo assay system of human cytokine release was used to test whether inhibition of factor Xa should augment the effect of reduction of inflammation elicited by standard anti-inflammatory drugs, such as aspirin.
Following addition of Compound A (50 to 500 nM) to the blood samples, control and treated samples were activated by addition of collagen (Chronolog, 4 μg/mL) and gently rotated at 37° C. for 45 min. At the end of the activation period, blood samples were centrifuged at 13,000 rpm (15,000 g) for 5 min in an Eppendorf 5415G centrifuge. Plasma was removed, treated with protease inhibitor cocktail (Roche) and stored frozen at −80° C. Cytokines released from the blood cells were quantitated in a Multiplexed Biomarker Immunoassay for Luminex Instrumentation (Millipore USA). […] For example, in the plasma samples from six donors, the mean amount of interleukin 4 was 28.4 pg/mL in the untreated control and 26.8 to 29.4 pg/mL in the Compound A treated samples. […] Thus in this ex vivo system Compound A was capable of providing additional beneficial effect over a widely used anti-inflammatory agent.

Interleukin 8 = assay: Ex vivo cytokine release in human whole blood: interleukin 8; assay type: cell-based
[2] = tested on: systolic and diastolic blood pressure; assay: Telemetry blood pressure in conscious beagle dogs, three way crossover; assay type: in vivo
Protocol: The study design was a three way crossover with one week between doses to ensure complete elimination of residual agents from the dogs' circulatory system. […] Data acquisition and analysis was performed using LDS Life Science Suite Ponemah P3 plus V 4.20 software with results reported as 10 minute averages for each animal.
AUC was derived from the systolic and diastolic baseline. […] Negative values represent a decrease in blood pressure relative to the baseline value.

[3] = tested on: Thrombosis on mouse mesenteric arteries; assay: FeCl3 thrombosis on mouse mesenteric arteries; assay type: in vivo, mice; settings: for Mean time to occlusion: P2Y12^+/− mice, 10 mg/kg
Text: Commonly used P2Y12 antagonists such as clopidogrel are prescribed at doses that block 40-50% of the P2Y12 receptors on platelets of treated patients. It has been shown that P2Y12^+/− mice which express ˜50% of the receptor on their platelets compared to wild type control (P2Y12^+/+), display an intermediate thrombosis phenotype between wild type and mice completely deficient in P2Y12 (P2Y12^−/−). (Andre, P., et al., J Clin Invest, 2003. 112(3):398-406). P2Y12 regulates platelet adhesion/activation, thrombus growth, and thrombus stability in injured arteries. The effect of Compound A was studied in a thrombosis model with P2Y12^+/− mice to effectively mimic the combination of dual dosing of factor Xa inhibitor and P2Y12 antagonist in humans.
Thrombosis on mouse mesenteric arteries (shear rate 1000-1300 s^−1) was performed and recorded as previously described (Andre, P., et al., J Clin Invest, 2003. 112(3):398-406). Platelets were labeled in situ using rhodamine 6G (0.2 mg/mL) and administered through the tail vein 10 min before visualization of the arteries. Vessel-wall injury was triggered by a 1×1-mm filter paper saturated with a 10% FeCl3 solution. After 5 minutes, the filter paper was removed and mesenteric arteries rinsed with warmed saline (37° C.). Platelet vessel-wall interactions were recorded for 40 additional minutes or until full occlusion occurred and persisted for more than 40 seconds. C57Bl6J mice (wild type control or P2Y12^+/−) were orally gavaged with vehicle control, compound A (2, 4, 10 mg/kg) two hours prior to vascular injury. Thrombosis was analyzed in real time using Simple PCI software. The fluorescence intensity was recorded at a rate of 2 Hz for 40 minutes and plotted over time. Time to occlusion (cessation of blood flow) was analyzed. Plasma concentrations of Compound A were determined on blood collected 2 min post-occlusion or 42 min after start of vascular injury.

[4] = Dog # 1, oral, Compound A 3 mg/kg, verapamil 10 mg/kg
[5] = Dog # 2, oral, Compound A 3 mg/kg, verapamil 10 mg/kg
[6] = Dog # 3, oral, Compound A 3 mg/kg, verapamil 10 mg/kg
[7] = three dogs, oral, Compound A 3 mg/kg, verapamil 10 mg/kg
[8] = wild type mice, 10 mg/kg oral gavage

T1 sequence (P00743 234-492 limits assumed): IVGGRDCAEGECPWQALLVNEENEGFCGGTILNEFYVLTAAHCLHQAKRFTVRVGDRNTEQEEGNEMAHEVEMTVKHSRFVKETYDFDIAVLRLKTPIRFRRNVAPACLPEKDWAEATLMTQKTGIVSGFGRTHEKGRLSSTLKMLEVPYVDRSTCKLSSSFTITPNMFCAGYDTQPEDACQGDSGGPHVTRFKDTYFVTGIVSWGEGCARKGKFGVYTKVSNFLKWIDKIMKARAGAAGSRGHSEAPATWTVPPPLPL
T1 sequence (P00743 41-180 partner limits assumed): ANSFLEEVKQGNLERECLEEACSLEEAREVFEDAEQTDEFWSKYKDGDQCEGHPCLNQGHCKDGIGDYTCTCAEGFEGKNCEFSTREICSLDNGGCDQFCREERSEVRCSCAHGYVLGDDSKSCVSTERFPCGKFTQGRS

## COc1ccc(NC(=O)c2ccc(C(=N)N(C)C)cc2)c(C(=O)Nc2ccc(Cl)cn2)c1 [Compound A, [2-({4-[(dimethylamino)iminomethyl]phenyl}carbonylamino)-5-methoxyphenyl]-N-(5-chloro(2-pyridyl))carboxamide]
Thrombin generation; plasma of healthy volunteers, single and multiple ascending doses (FIG. 1, FIG. 2)
  correlation between Compound A plasma concentration and inhibition of thrombin generation: good correlation
Thrombin generation; total knee replacement patients, 15 mg or 40 mg oral twice a day
  effect on inhibition of thrombin generation: dose- and concentration-dependent effect
Factor Xa
  effect on anti-factor Xa levels: dose- and concentration-dependent effect
[1]; 0.03 μM Compound A
  % Did not occlude (inhibition of rat thrombosis): 30%
  Number of animals without occlusion: 3
  time to occlusion: 27.07
[1]; 0.1 μM Compound A
  % Did not occlude (inhibition of rat thrombosis): 60%
  Number of animals without occlusion: 6
  time to occlusion: 52.66
[1]; 0.3 μM Compound A
  % Did not occlude (inhibition of rat thrombosis): 90%
  Number of animals without occlusion: 9
  time to occlusion: 35.78
[1]; Compound A 0.03 μM iv infusion, aspirin 3 mg/kg iv bolus, or both
  % DNO (inhibition of rat thrombosis): 30%
[1]; average for animals that occluded, Compound A 0.03 μM, aspirin 3 mg/kg, or both
  TTO (Time to occlusion): 27.07 ± 7.36 min
[1]; number of 10 animals, Compound A 0.03 μM iv infusion, aspirin 3 mg/kg iv bolus, or both
  DNO (did not occlude): 3
Cytokine release
  inhibition of cytokine release: did not produce statistically significant inhibition of cytokine release
Interleukin 8; Compound A added to blood samples from donors under aspirin therapy
  reduction in the levels of released interleukin 8: 44%
Interleukin 8; addition of Compound A to whole blood of aspirin treated donors prior to collagen activation
  further reduction of interleukin 8: 18%
[2]; Compound A 3 mg/kg as a single agent, oral
  diastolic blood pressure (DBP) compared to pre-dose values: no statistical differences
[2]; [4]
  Lowest Diastolic Blood Pressure Post-Dosing: 92.57 mmHg
  Lowest Systolic Blood Pressure Post-Dosing: 150.32 mmHg
[2]; [5]
  Lowest Diastolic Blood Pressure Post-Dosing: 83.73 mmHg
  Lowest Systolic Blood Pressure Post-Dosing: 121.08 mmHg
[2]; [6]
  Lowest Diastolic Blood Pressure Post-Dosing: 80.52 mmHg
  Lowest Systolic Blood Pressure Post-Dosing: 101.93 mmHg
[2]; following verapamil or placebo administration ([…]), relative to baseline
  Mean Area Under the Curve for Systolic Pressure (AUCP), Mean ± S.D.: 782.7 ± 1297.8 mmHg * min.
[2]; telemeterized dogs
  measures of blood pressure upon coadministration with verapamil: did not change the measures of blood pressure
[2]; [7]
  Lowest Diastolic Blood Pressure Post-Dosing, Mean ± S.D.: 85.60 ± 6.24 mmHg
  Lowest Systolic Blood Pressure Post-Dosing, Mean ± S.D.: 124.44 ± 24.37 mmHg
[3]; P2Y12^+/− animals
  plasma concentration sufficient to prevent vascular occlusion: more than 76 ng/mL
[3]; P2Y12^+/− mice with Compound A (756.7 seconds without)
  time to occlusion: over 2100 seconds
[3]; Experiment 1
  Mean time to occlusion: 2143 s
[3]; Experiment 2
  Mean time to occlusion: 2399 s
[3]; Experiment 3
  Mean time to occlusion: 2305 s
[3]; wild type animals
  circulating plasma concentration that prevented vascular occlusion: more than 1000 ng/mL
[3]; [8]
  time for appearance of first thrombus: significantly delayed
  time to occlusion: significantly delayed
[3]; wild type mice, 2 and 4 mg/kg oral gavage two hours prior to injury
  antithrombotic effect: non-effective
